Data from patent US9512105B2, “1-substituted 4-arylpiperazine as kappa opioid receptor antagonists” (RESEARCH TRIANGLE INSTITUTE, priority 2011, dated 2016).
Read-outs that look alike come from different tables or passages of the source.

Columns and labels:
[1] = target: T1, cloned human δ-opioid receptor (Homo sapiens, UniProt P41143); test: Inhibition of DPDPE-stimulated [35S]GTPγS binding; format: biochemical
T1 construct: expressed in transfected cells

[2] = target: T2, cloned human κ-opioid receptor (Homo sapiens, UniProt P41145); test: Inhibition of U69,593-stimulated [35S]GTPγS binding; format: biochemical; details: for δ/κ / μ/κ: ratio of Ke values; for δ/κ: selectivity for κ relative to δ; for μ/κ: selectivity for κ relative to μ
T2 construct: expressed in transfected cells

[3] = target: T3, cloned human μ-opioid receptor (Homo sapiens, UniProt P35372); test: Inhibition of DAMGO-stimulated [35S]GTPγS binding; format: biochemical
T3 construct: expressed in transfected cells

[4] = antagonism of DPDPE-stimulated [35S]GTPγS binding, cloned human δ receptor, read-out: δ, DPDPE Ke
[5] = antagonism of U69,593-stimulated [35S]GTPγS binding, cloned human κ receptor, read-out: κ, U69,593 Ke
[6] = antagonism of DAMGO-stimulated [35S]GTPγS binding, cloned human μ receptor, read-out: μ, DAMGO Ke

T2 sequence (P41145 whole entry): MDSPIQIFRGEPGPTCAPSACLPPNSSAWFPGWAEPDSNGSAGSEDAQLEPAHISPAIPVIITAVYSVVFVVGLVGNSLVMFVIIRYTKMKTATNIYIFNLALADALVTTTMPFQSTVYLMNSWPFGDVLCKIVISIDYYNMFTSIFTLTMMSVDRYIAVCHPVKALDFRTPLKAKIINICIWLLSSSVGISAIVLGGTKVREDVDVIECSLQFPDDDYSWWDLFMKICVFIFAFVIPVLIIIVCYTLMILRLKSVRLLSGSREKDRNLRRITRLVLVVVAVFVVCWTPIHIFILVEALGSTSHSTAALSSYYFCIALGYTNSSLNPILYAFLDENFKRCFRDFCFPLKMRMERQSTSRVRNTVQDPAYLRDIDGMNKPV
T1 sequence (P41143 whole entry): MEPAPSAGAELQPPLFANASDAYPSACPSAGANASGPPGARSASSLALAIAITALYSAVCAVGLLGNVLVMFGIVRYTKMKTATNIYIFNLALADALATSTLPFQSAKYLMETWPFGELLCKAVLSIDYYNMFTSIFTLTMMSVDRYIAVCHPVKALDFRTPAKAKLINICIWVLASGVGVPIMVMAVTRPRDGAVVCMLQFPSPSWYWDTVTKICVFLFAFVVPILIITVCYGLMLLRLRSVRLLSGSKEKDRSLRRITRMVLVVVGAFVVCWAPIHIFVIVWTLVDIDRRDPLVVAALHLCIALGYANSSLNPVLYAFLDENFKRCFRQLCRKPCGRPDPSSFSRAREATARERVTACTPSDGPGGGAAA
T3 sequence (P35372 whole entry): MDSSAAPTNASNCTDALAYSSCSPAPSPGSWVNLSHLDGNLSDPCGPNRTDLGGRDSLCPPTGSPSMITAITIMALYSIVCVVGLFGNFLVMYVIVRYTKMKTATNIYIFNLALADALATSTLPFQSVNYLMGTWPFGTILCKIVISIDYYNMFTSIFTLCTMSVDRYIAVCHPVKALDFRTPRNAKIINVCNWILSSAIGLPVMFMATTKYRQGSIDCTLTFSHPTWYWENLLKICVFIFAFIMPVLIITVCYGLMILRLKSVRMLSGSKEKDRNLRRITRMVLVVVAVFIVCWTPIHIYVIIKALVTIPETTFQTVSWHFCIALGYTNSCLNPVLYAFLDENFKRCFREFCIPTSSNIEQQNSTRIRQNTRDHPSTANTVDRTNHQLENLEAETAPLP

| Structure (SMILES) | Kb [1, 4] | Kb [2, 5] | δ/κ [2] | μ/κ [2] | melting point | Kb [3, 6] | δ/κ ([2]; Dihydrochloride) | Kb [1] | Kb [3] | Kb [2] |
| --- | --- | --- | --- | --- | --- | --- | --- | --- | --- | --- |
| CC(C)[C@@H](CN1CCN(c2cccc(O)c2)[C@@H](C)C1)NC(=O)c1ccc(Oc2cccc(Br)c2)cc1.Cl.Cl [Compound 19d, 4-(3-Bromophenoxy)-N-[(1S)-1-{[(3S)-4-(3-hydroxyphenyl)-3-methylpiperazin-1-yl]methyl}-2-methylpropyl]benzamide Dihydrochloride] | 42 ± 19 nM | 0.48 ± 0.02 nM | 88 | 35 | 106 to 109 °C | 17 ± 6.3 nM |  |  |  |  |
| Cc1cccc(Oc2ccc(C(=O)N[C@H](CN3CCN(c4cccc(O)c4)[C@@H](C)C3)C(C)C)cc2)c1O.Cl.Cl [Compound 19e, 4-(2-Hydroxy-3-methylphenoxy)-N-[(2S)-1-[(3S)-4-(3-hydroxyphenyl)-3-methylpiperazin-1-yl]-3-methylbutan-2-yl]benzamide Dihydrochloride] | 92.7 ± 14 nM | 0.34 ± 0.16 nM |  |  | 173 °C | 23.8 ± 8.9 nM |  |  |  |  |
| Cc1cc(C)cc(Oc2ccc(C(=O)N[C@H](CN3CCN(c4cccc(O)c4)[C@@H](C)C3)C(C)C)cc2)c1.Cl.Cl [Compound 19f, 4-(3,5-Dimethylphenoxy)-N-[(1S)-1-{[(3S)-4-(3-hydroxyphenyl)-3-methylpiperazin-1-yl]methyl}-2-methylpropyl]benzamide Dihydrochloride] | 78 ± 20 nM | 0.98 ± 0.06 nM | 80 | 26 | 117 to 120 °C | 25 ± 7 nM |  |  |  |  |
| Cc1cccc(Oc2ccc(C(=O)N[C@H](CN3CCN(c4cccc(O)c4)[C@@H](C)C3)C(C)C)cc2C)c1.Cl.Cl [Compound 19g, N-[(2S)-1-[(3S)-4-(3-Hydroxyphenyl)-3-methylpiperazin-1-yl]-3-methylbutan-2-yl]-3-methyl-4-(3-methylphenoxy)benzamide Dihydrochloride] | 21 ± 6 nM | 0.16 ± 0.03 nM |  |  | 124 to 130 °C | 14.4 ± 3.9 nM | 131 |  |  |  |
| COc1cc(C(=O)N[C@H](CN2CCN(c3cccc(O)c3)[C@@H](C)C2)C(C)C)ccc1Oc1cccc(C)c1.Cl.Cl [Compound 19h, N-[(2S)-1-[(3S)-4-(3-Hydroxyphenyl)-3-methylpiperazin-1-yl]-3-methylbutan-2-yl]-3-methoxy-4-(3-methylphenoxy)benzamide Dihydrochloride] | 93 ± 4 nM | 0.25 ± 0.07 nM |  |  | 128 to 131 °C | 35.1 ± 15 nM |  |  |  |  |
| Cc1cccc(Oc2ccc(C(=O)N[C@H](CN3CCN(c4cccc(O)c4)[C@@H](C)C3)C(C)C)cc2O)c1.Cl.Cl [Compound 19i, 3-Hydroxy-N-[(2S)-1-[(3S)-4-(3-hydroxyphenyl)-3-methylpiperazin-1-yl]-3-methylbutan-2-yl]-4-(3-methylphenoxy)benzamide Dihydrochloride] | 81 ± 35 nM | 0.57 ± 0.14 nM | 142 | 24 | 195 to 200 °C | 13.7 ± 5.6 nM |  |  |  |  |
| Cc1cccc(Oc2ccc(C(=O)N[C@H](CN3CCN(c4cccc(O)c4)[C@@H](C)C3)C(C)C)c(C)c2)c1.Cl.Cl [Compound 19j, N-[(1S)-1-{[(3S)-4-(3-Hydroxyphenyl)-3-methylpiperazin-1-yl]methyl}-2-methylpropyl]-2-methyl-4-(3-methylphenoxy)benzamide Dihydrochloride] |  | 0.65 ± 0.2 nM | 28 | 22 | 164 to 167 °C |  |  | 18 ± 3 nM | 14 ± 3 nM |  |
| COc1cc(Oc2cccc(C)c2)ccc1C(=O)N[C@H](CN1CCN(c2cccc(O)c2)[C@@H](C)C1)C(C)C.Cl.Cl [Compound 19k, N-[(1S)-1-{[(3S)-4-(3-Hydroxyphenyl)-3-methylpiperazin-1-yl]methyl}-2-methylpropyl]-2-methoxy-4-(3-methylphenoxy)benzamide Dihydrochloride] | 63 ± 20 nM | 1.3 ± 0.03 nM | 48 | 38 | 99 to 102 °C | 49 ± 14 nM |  |  |  |  |
| Cc1cccc(Oc2ccc(C(=O)N[C@H](CN3CCN(c4cccc(O)c4)[C@@H](C)C3)C(C)C)c(O)c2)c1.Cl.Cl [Compound 19l, 2-Hydroxy-N-[(1S)-1-{[(3S)-4-(3-hydroxyphenyl)-3-methylpiperazin-1-yl]methyl}-2-methylpropyl]-4-(3-methylphenoxy)benzamide Dihydrochloride] |  |  | 129 | 81 | 119 to 123 °C |  |  | 233 ± 90 nM | 145 ± 48 nM | 1.8 ± 0.3 nM |
| COc1cc(C(=O)N[C@H](CN2CCN(c3cccc(O)c3)[C@@H](C)C2)C(C)C)ccc1Oc1ccccc1O.Cl.Cl [Compound 19m, 4-(2-Hydroxyphenoxy)-N-[(1S)-1-{[(3S)-4-(3-hydroxyphenyl)-3-methylpiperazin-1-yl]methyl}-2-methylpropyl]-3-methoxybenzamide Dihydrochloride] |  | 16.3 ± 2.7 nM | 4 | 5 | 95 to 97 °C | 74 ± 23 nM |  | 67 ± 47 nM |  |  |
| COc1cc(C(=O)N[C@H](CN2CCN(c3cccc(O)c3)[C@@H](C)C2)C(C)C)ccc1Oc1cc(C)ccc1O.Cl.Cl [Compound 19o, 4-(2-Hydroxy-5-methylphenoxy)-N-[(1S)-1-{[(3S)-4-(3-hydroxyphenyl)-3-methylpiperazin-1-yl]methyl}-2-methylpropyl]-3-methoxybenzamide Dihydrochloride] |  | 6.2 ± 2.2 nM | 6 | 2 | 100 to 103 °C |  |  | 37 ± 13 nM | 10 ± 2.6 nM |  |
| Cc1ccc(O)c(Oc2ccc(C(=O)N[C@H](CN3CCN(c4cccc(O)c4)[C@@H](C)C3)C(C)C)cc2Cl)c1.Cl.Cl [Compound 19p, 3-Chloro-4-(2-hydroxy-5-methylphenoxy)-N-[(1S)-1-{[(3S)-4-(3-hydroxyphenyl)-3-methylpiperazin-1-yl]methyl}-2-methylpropyl]benzamide Dihydrochloride] | 15 ± 3.6 nM | 3 ± 1.1 nM | 5 | 3 | 145 to 148 °C | 8.2 ± 1.7 nM |  |  |  |  |
